In patent EP4707280A1, “1,4-CINEOLE DERIVATIVE AND INTERMEDIATE THEREOF, HERBICIDE CONTAINING SAID DERIVATIVE AS ACTIVE INGREDIENT, METHOD FOR USING HERBICIDE, AND METHOD FOR PREPARING AGROCHEMICAL COMPOSITION” (HOKKO CHEMICAL INDUSTRY CO., LTD., priority 2023, dated 2024):

Tests used:
Type in all cases: in vivo
[1] = system: Echinochloa crus-galli var. formosensis; assay: Test Example 1: herbicidal effect test by soil application in paddy rice; conditions: 120 g active ingredient per 10 ares, applied immediately after sowing, flooded pots, 14 days after application; for pest or weed control at 1200 g/ha: Echinochloa crus-galli, soil, 336 h, read-out: weed inhibition rate
Summary of the method: (§1)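 Pre-emergence paddy soil application, 120 g a.i./10 a, emulsifiable concentrate diluted in water, applied by dropper right after sowing. Seeds (30/species) sown 0–1 cm in puddled, fertilized soil; flooded ~3 cm; glass greenhouse.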

Scirpus juncoides [2] = assay: as above; conditions: 120 g active ingredient per 10 ares, applied immediately after sowing, flooded pots, 14 days after application; for pest or weed control at 1200 g/ha: Schoenoplectiella juncoides, soil, 336 h, read-out: weed inhibition rate
Summary of the method: as §1

Monochoria vaginalis [3] = assay: as above; conditions: 120 g active ingredient per 10 ares, applied immediately after sowing, flooded pots, 14 days after application; for pest or weed control at 1200 g/ha: Pontederia vaginalis, soil, 336 h, read-out: weed inhibition rate
Summary of the method: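 Inhibition rate (%) read 14 days after treatment, duplicate pots. Water-diluted emulsifiable concentrate was applied by dropper at 120 g active ingredient/10 ares right after sowing. Seeds (30 per species, 0–1 cm deep) went into puddled paddy soil kept flooded at about 3 cm in a greenhouse.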

Echinochloa crus-galli = assay: Test Example 4: herbicidal effect test by stem and leaf treatment in upland field; conditions: Echinochloa crus-galli; 120 g per 10 ares; sprayed seven days after sowing, upland soil; 14 days after application; read-out: weed inhibition rate
[4] = system: Echinochloa crus-galli var. formosensis; assay: Test Example 5: herbicidal effect test by soil application in paddy rice (low dose); conditions: Echinochloa crus-galli, soil, 336 h; 7.5 g per 10 ares; applied immediately after sowing, flooded pots; 14 days after application; read-out: weed inhibition rate
Summary of the method: (§2)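 Paddy-soil pots, weeds sown 0–1 cm deep and flooded to about 3 cm in a greenhouse. Emulsifiable concentrate diluted in water and dropped in right after sowing at 7.5 g active ingredient per 10 ares. Duplicates; effect scored 14 days after application.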

Monochoria vaginalis [5] = assay: as above; conditions: Pontederia vaginalis, 336 h, 7.5 g per 10 ares, applied immediately after sowing, flooded pots, 14 days after application, read-out: weed inhibition rate
Summary of the method: as §2

Scirpus juncoides [6] = assay: as above; conditions: Schoenoplectiella juncoides, 336 h, 7.5 g per 10 ares, applied immediately after sowing, flooded pots, 14 days after application, read-out: weed inhibition rate
Summary of the method: as §2

Monochoria vaginalis [7] = assay: Test Example 6: herbicidal effect test by application during growth period of paddy rice (low dose); conditions: Pontederia vaginalis; 7.5 g per 10 ares; applied seven days after sowing, flooded pots; 14 days after application; read-out: weed inhibition rate
Summary of the method: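 Puddled, fertilised paddy soil was sown with 30 seeds per species and flooded to about 3 cm. After 7 days in a glass greenhouse, the diluted emulsifiable concentrate went into the water by dropper at 7.5 g/10 a. Effect scored at 14 days.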

CC(C)[C@]12C[C@@H](OCc3cccs3)[C@](C)(C[C@@H]1Br)O2 [1-721, (1S,2R,4R,5S)-5-bromo-1-methyl-4-isopropyl-2-(thiophen-2-ylmethoxy)-7-oxabicyclo[2.2.1]heptane]
≥ 80%: pest or weed control at 1200 g/ha [1] | pest or weed control at 1200 g/ha (Scirpus juncoides [2]) | pest or weed control at 1200 g/ha (Monochoria vaginalis [3]) | inhibition at 1200 g/ha (Echinochloa crus-galli) | inhibition at 75 g/ha [4] | inhibition at 75 g/ha (Monochoria vaginalis [5]) | inhibition at 75 g/ha (Scirpus juncoides [6]) | inhibition at 75 g/ha (Monochoria vaginalis [7])

CC(C)[C@]12C[C@@H](OCc3c(Cl)cccc3Cl)[C@](C)(C[C@@H]1Br)O2 [1-712, (1S,2R,4R,5S)-5-bromo-2-[(2,6-dichlorophenyl)methoxy]-1-methyl-4-isopropyl-7-oxabicyclo[2.2.1]heptane]
≥ 80%: pest or weed control at 1200 g/ha [1] | pest or weed control at 1200 g/ha (Scirpus juncoides [2]) | pest or weed control at 1200 g/ha (Monochoria vaginalis [3]) | inhibition at 1200 g/ha (Echinochloa crus-galli) | inhibition at 75 g/ha [4] | inhibition at 75 g/ha (Monochoria vaginalis [5]) | inhibition at 75 g/ha (Monochoria vaginalis [7])

CC(C)[C@]12C[C@@H](OCc3ccccc3F)[C@](C)(C[C@H]1C)O2 [1-94, (1S,2R,4R,5R)-2-[(2-fluorophenyl)methoxy]-1,5-dimethyl-4-isopropyl-7-oxabicyclo[2.2.1]heptane]
≥ 80%: pest or weed control at 1200 g/ha [1] | pest or weed control at 1200 g/ha (Scirpus juncoides [2]) | pest or weed control at 1200 g/ha (Monochoria vaginalis [3]) | inhibition at 1200 g/ha (Echinochloa crus-galli) | inhibition at 75 g/ha [4] | inhibition at 75 g/ha (Monochoria vaginalis [5]) | inhibition at 75 g/ha (Scirpus juncoides [6]) | inhibition at 75 g/ha (Monochoria vaginalis [7])

CC(C)[C@]12C[C@@H](OCc3ccccc3Cl)[C@](C)(C[C@@H]1Br)O2 [1-20, (1S,2R,4R,5S)-5-bromo-2-[(2-chlorophenyl)methoxy]-1-methyl-4-isopropyl-7-oxabicyclo[2.2.1]heptane]
≥ 80%: pest or weed control at 1200 g/ha [1] | pest or weed control at 1200 g/ha (Scirpus juncoides [2]) | pest or weed control at 1200 g/ha (Monochoria vaginalis [3]) | inhibition at 1200 g/ha (Echinochloa crus-galli) | inhibition at 75 g/ha [4] | inhibition at 75 g/ha (Monochoria vaginalis [5]) | inhibition at 75 g/ha (Scirpus juncoides [6]) | inhibition at 75 g/ha (Monochoria vaginalis [7])

CC(C)[C@]12C[C@@H](OCc3c(F)cccc3Cl)[C@](C)(CC1=O)O2 [2-28, (1R,4S,5R)-5-((2-chloro-6-fluorobenzyl)oxy)-1-isopropyl-4-methyl-7-oxabicyclo[2.2.1]heptan-2-one]
≥ 80%: pest or weed control at 1200 g/ha [1] | pest or weed control at 1200 g/ha (Scirpus juncoides [2]) | pest or weed control at 1200 g/ha (Monochoria vaginalis [3]) | inhibition at 1200 g/ha (Echinochloa crus-galli) | inhibition at 75 g/ha [4] | inhibition at 75 g/ha (Monochoria vaginalis [5]) | inhibition at 75 g/ha (Scirpus juncoides [6]) | inhibition at 75 g/ha (Monochoria vaginalis [7])

Cc1ccccc1CO[C@@H]1C[C@]2(C(C)C)O[C@@]1(C)C/C2=N\O [2-191, (1R,4S,5R,E)-1-isopropyl-4-methyl-5-((2-methylbenzyl)oxy)-7-oxabicyclo[2.2.1]heptan-2-one oxime]
≥ 80%: pest or weed control at 1200 g/ha [1] | pest or weed control at 1200 g/ha (Scirpus juncoides [2]) | pest or weed control at 1200 g/ha (Monochoria vaginalis [3]) | inhibition at 1200 g/ha (Echinochloa crus-galli) | inhibition at 75 g/ha [4] | inhibition at 75 g/ha (Monochoria vaginalis [5]) | inhibition at 75 g/ha (Monochoria vaginalis [7])

CC(C)[C@]12C[C@@H](OCc3cccc(F)c3)[C@](C)(C[C@@H]1Br)O2 [1-690, (1S,2R,4R,5S)-5-bromo-2-[(3-fluorophenyl)methoxy]-1-methyl-4-isopropyl-7-oxabicyclo[2.2.1]heptane]
≥ 80%: pest or weed control at 1200 g/ha [1] | pest or weed control at 1200 g/ha (Scirpus juncoides [2]) | pest or weed control at 1200 g/ha (Monochoria vaginalis [3]) | inhibition at 1200 g/ha (Echinochloa crus-galli) | inhibition at 75 g/ha [4] | inhibition at 75 g/ha (Monochoria vaginalis [5]) | inhibition at 75 g/ha (Monochoria vaginalis [7])

CC(C)[C@]12C[C@@H](OCc3c(F)cccc3Br)[C@](C)(C[C@@H]1Br)O2 [1-1600, (1S,2R,4R,5S)-5-bromo-2-[(2-bromo-6-fluorophenyl)methoxy]-1-methyl-4-isopropyl-7-oxabicyclo[2.2.1]heptane]
≥ 80%: pest or weed control at 1200 g/ha [1] | pest or weed control at 1200 g/ha (Scirpus juncoides [2]) | pest or weed control at 1200 g/ha (Monochoria vaginalis [3]) | inhibition at 1200 g/ha (Echinochloa crus-galli) | inhibition at 75 g/ha [4] | inhibition at 75 g/ha (Monochoria vaginalis [7])

CC(C)[C@]12C[C@@H](OCc3c(F)cccc3Cl)[C@](C)(C[C@@H]1Br)O2 [1-713, (1S,2R,4R,5S)-5-bromo-2-[(2-chloro-6-fluorophenyl)methoxy]-1-methyl-4-isopropyl-7-oxabicyclo[2.2.1]heptane]
≥ 80%: pest or weed control at 1200 g/ha [1] | pest or weed control at 1200 g/ha (Scirpus juncoides [2]) | pest or weed control at 1200 g/ha (Monochoria vaginalis [3]) | inhibition at 1200 g/ha (Echinochloa crus-galli) | inhibition at 75 g/ha [4] | inhibition at 75 g/ha (Monochoria vaginalis [5]) | inhibition at 75 g/ha (Monochoria vaginalis [7])

CC(C)[C@]12C[C@@H](OCc3ccccc3F)[C@](C)(CC1C)O2 (stereo partly drawn) [1-92, (1S,2R,4R)-2-((2-fluorobenzyl)oxy)-4-isopropyl-1,5-dimethyl-7-oxabicyclo[2.2.1]heptane]
≥ 80%: pest or weed control at 1200 g/ha [1] | pest or weed control at 1200 g/ha (Scirpus juncoides [2]) | pest or weed control at 1200 g/ha (Monochoria vaginalis [3]) | inhibition at 1200 g/ha (Echinochloa crus-galli) | inhibition at 75 g/ha [4] | inhibition at 75 g/ha (Monochoria vaginalis [5]) | inhibition at 75 g/ha (Scirpus juncoides [6]) | inhibition at 75 g/ha (Monochoria vaginalis [7])

CC(C)C1C[C@]2(C)O[C@@]1(C(C)C)C[C@H]2OCc1ccccc1F (stereo partly drawn) [1-133, (1S,2R,4R)-2-[(2-fluorobenzyl)oxy]-4,5-isopropyl-1-methyl-7-oxabicyclo[2.2.1]heptane]
≥ 80%: weed inhibition rate [1] | weed inhibition rate (Scirpus juncoides [2]) | weed inhibition rate (Monochoria vaginalis [3]) | inhibition at 1200 g/ha (Echinochloa crus-galli) | inhibition at 75 g/ha [4] | inhibition at 75 g/ha (Monochoria vaginalis [5]) | inhibition at 75 g/ha (Scirpus juncoides [6]) | inhibition at 75 g/ha (Monochoria vaginalis [7])

CCCO[C@H]1C[C@]2(C)O[C@@]1(C(C)C)C[C@H]2OCc1ccccc1F [1-1604, (1S,2R,4R,SS)-2-[(2-fluorophenyl)methoxy]-1-methyl-4-isopropyl-5-propoxy-7-oxabicyclo[2.2.1]heptane]
≥ 80%: weed inhibition rate [1] | weed inhibition rate (Scirpus juncoides [2]) | weed inhibition rate (Monochoria vaginalis [3]) | inhibition at 1200 g/ha (Echinochloa crus-galli) | inhibition at 75 g/ha [4] | inhibition at 75 g/ha (Monochoria vaginalis [5]) | inhibition at 75 g/ha (Scirpus juncoides [6]) | inhibition at 75 g/ha (Monochoria vaginalis [7])

CC(C)[C@]12C[C@@H](OCc3ccccc3Br)[C@](C)(CC1=O)O2 [2-13, (1R,4S,5R)-5-((2-bromobenzyl)oxy)-1-isopropyl-4-methyl-7-oxabicyclo[2.2.1]heptan-2-one]
≥ 80%: pest or weed control at 1200 g/ha [1] | pest or weed control at 1200 g/ha (Scirpus juncoides [2]) | pest or weed control at 1200 g/ha (Monochoria vaginalis [3]) | inhibition at 1200 g/ha (Echinochloa crus-galli) | inhibition at 75 g/ha [4] | inhibition at 75 g/ha (Monochoria vaginalis [5]) | inhibition at 75 g/ha (Scirpus juncoides [6]) | inhibition at 75 g/ha (Monochoria vaginalis [7])
